Data set [1] is described as follows: Oral bioavailability in dog. The note with it: in vivo. Format: ADME, organism-based, Canis lupus familiaris.
The nature of data set [2]: Half life in rat. The note with it: in vivo. Format: ADME, organism-based.
A short description of data set [3]: Volume of distribution at steady state in dog. Format: ADME, organism-based, Canis lupus familiaris. To be noted: in vivo, read-out: Vdss.
The nature of data set [4]: Clearance in dog. Format: ADME, organism-based, Canis lupus familiaris. To be noted: in vivo.
Data set [5] is described as follows: Half life in dog. Format: ADME, organism-based, Canis lupus familiaris. To be noted: in vivo.
Data set [6] in a line: Volume of distribution at steady state in rat. Format: ADME, organism-based. The note with it: in vivo, read-out: Vdss.
Data set [7] in a line: Clearance in rat. To be noted: in vivo. Format: ADME, organism-based.
The nature of data set [8]: Permeability across MDCK cells. Format: ADME, cell-based, Canis lupus familiaris. The note with it: dog.
Data set [9] is described as follows: Solubility in aqueous solution at pH 6.5. Format: physicochemical.
Data set [10] can be described thus: Oral bioavailability in rat. Format: ADME, organism-based. The note with it: in vivo.

We go through two compounds from ChEMBL document CHEMBL2169748 (J Med Chem, 2012).

Each structure is given as a SMILES string. In brackets after ≈: the same amount, converted by molar mass.

`CCc1nc2ccccc2n1-c1nc(N2CCOCC2)c2nc(CN3CC(C4CCOCC4)C3)n(C)c2n1` showed a bioavailability in [1] of 56%. For the same compound, the half-life is 2.6 h in data set [2] and 3.6 h in [5]. The Vd in [3] and in data set [6] was 6.5 L/kg each time. Further, the clearance in data set [4] was 25 mL/min/kg; in data set [7], 34 mL/min/kg. The same compound displayed a Papp in data set [8] of 16 ×10⁻⁶ cm/s. The compound also gave a solubility in data set [9] of 338 µg/mL (≈ 654 µM).
Turning to `CCc1nc2ccccc2n1-c1nc(N2CCOCC2)c2nc(CN3CCC(C(C)(C)O)CC3)n(C)c2n1`, the bioavailability in [10] is 92%; in data set [1], above 100%. The half-life is 1.5 h in data set [2] and 6.4 h in data set [5]. For the same compound, the Vd in [3] came to 2 L/kg; in [6], 4.1 L/kg. The clearance in data set [4] came to 5 mL/min/kg; in data set [7] it was 19 mL/min/kg.
